In BindingDB's records for doi:10.1016/j.bmc.2016.03.038 (2016) one finds IC50 data, which are given here for four compounds.

The nature of assay [1]: Inhibition of mouse GAT3 expressed in HEK293 cells assessed as [3H]GABA uptake preincubated for 25 mins followed by [3H]GABA/unlabeled GABA addition measured after 4 mins by liquid scintillation counting analysis.
A short description of assay [2]: Inhibition of mouse GAT2 expressed in HEK293 cells assessed as [3H]GABA uptake preincubated for 25 mins followed by [3H]GABA/unlabeled GABA addition measured after 10 mins by liquid scintillation counting analysis.

For orientation: IC50 means the concentration that inhibits the measured activity by half.

SMILES strings stand for the structures.

Turning to `O=C(O)[C@H]1CNCC[C@@H]1CCCC/C=C/c1ccccc1-c1ccccc1`, in assay [1], the half-inhibitory concentration (IC50) turned out to be 44.5 µM.

With `O=C(O)[C@H]1CNCC[C@H]1CCCC/C=C/c1ccccc1-c1ccccc1`, the IC50 in assay [2] was 52.2 µM.

For the compound `O=C(O)[C@H]1CNCC[C@H]1CCCC#Cc1ccccc1Cc1ccccc1`, in assay [1], the IC50 is 37.6 µM.

Turning to `O=C(O)[C@H]1CNCC[C@H]1CC/C=C/c1ccccc1Cc1ccccc1`, the IC50 in assay [1] was 62.5 µM.
